Patent publication US7307063B2, “Melanocortin metallopeptides for treatment of sexual dysfunction” (Palatin Technologies, Inc., priority 2001, dated 2007)
Non-standard residues stand in square brackets, D forms with d. No end group written: not given here. 2Nal = N[C@@H](Cc1ccc2ccccc2c1)C(=O)O; Tic = O=C(O)[C@@H]1Cc2ccccc2CN1; aThr = C[C@H](O)[C@H](N)C(=O)O; Nle = CCCC[C@H](N)C(=O)O

How the values were obtained:
hMC5-R = target: T1, hMC5-R (Homo sapiens, UniProt P33032); test: Competitive binding assay: inhibition of 125I-NDP-α-MSH binding to HEK-293 membranes with cloned human receptor subtype 5
T1 construct: expressed in transfected cells; host or cells: HEK-293
In short: (§1)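 Membranes: B16-F10 mouse melanoma (MC1-R) or HEK-293 expressing cloned human subtypes. Radioligand 125I-NDP-α-MSH; NSB with 1 μM α-MSH; metallopeptide at chosen concentration; readout % inhibition of specific binding.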

MC1-R = target: T2, MC1-R (Mus musculus, UniProt Q01727); test: Competitive binding assay: inhibition of 125I-NDP-α-MSH binding to membranes from B16-F10 mouse melanoma cells
T2 construct: MC1-R membranes were isolated from B16—F10 mouse melanoma cells; endogenous in cells; host or cells: B16-F10 mouse melanoma cells
In short: as §1

hMC2-R = target: T3, hMC2-R (Homo sapiens, UniProt P41968); test: Competitive binding assay of additional compounds, Table 6 hMC2-R; conditions: 1 μM, mean of triplicate
T3 construct: expressed in transfected cells; host or cells: HEK-293

MC4-R [1] = target: T4, MC4-R (Homo sapiens, UniProt P32245); test: Competitive binding assay: inhibition of 125I-NDP-α-MSH binding to HEK-293 membranes with cloned human receptor subtype 4
T4 construct: expressed in transfected cells; host or cells: HEK-293
In short: as §1

MC4-R [2] = target: T4, MC4-R; test: Functional activity assay: intracellular cAMP in HEK-293 cells expressing MC4-R; type: cell-based; conditions: Re-complexed peptide
Description: Rhenium-complexed metallopeptides were prepared, with functional evaluation of peptides at MC1-R and MC4-R performed by measuring the accumulation of intracellular cAMP in HEK-293 cells expressing MC4-R or B16-F10 mouse melanoma cells expressing MC1-R. Antagonistic activity was determined by measuring the inhibition of α-MSH-induced cAMP levels following exposure to peptide. Cells, suspended in Earle's Balanced Salt Solution containing 10 mM HEPES, pH 7.5, 5 mM MgCl2, 1 mM glutamine, 0.1% albumin and 0.6 mM 3-isobutyl-1-methyl-xanthine, a phosphodiesterase inhibitor, were plated in 96 well plates at a density of 0.5×10^5 cells per well. Cells were incubated with the test peptides in the presence or absence of α-MSH for 1 hour at 37° C. cAMP levels were measured by EIA (Amersham) in the cell lysates. Data analysis and EC50 values were determined using nonlinear regression analysis with Prism Graph-Pad software.

hMC3-R = target: T5, hMC3-R (Homo sapiens, UniProt P41968); test: Competitive binding assay: inhibition of 125I-NDP-α-MSH binding to HEK-293 membranes with cloned human receptor subtype 3; conditions: Table 1; 1 μM Re-complexed peptide
T5 construct: expressed in transfected cells; host or cells: HEK-293
Description: Rhenium-complexed metallopeptides of the formulas given in Table 1 were prepared, with the metallopeptides complexed with rhenium using the rhenium transfer agent ReOCl3(PPh3)2 in the presence of 1,8-Diazabicyclo[5,4,0] undec-7-ene as a base, as disclosed in International Application PCT/US00/16396, filed Jun. 14, 2000, Melanocortin Metallopeptide Constructs, Combinatorial Libraries and Applications, incorporated by reference herein. Affinities of compounds were measured using membranes from HEK-293 cells containing cloned human melanocortin receptor subtypes 3, 4 and 5. MC1-R membranes were isolated from B16—F10 mouse melanoma cells. The assay tube also contained a chosen concentration of the test peptide of this invention, complexed to a rhenium metal ion as indicated, for determining its efficacy in inhibiting the binding of ^125I-NDP-α-MSH to its receptor. Non-specific binding was measured by complete inhibition of binding of ^125I-NDP-α-MSH in the assay with the presence of 1 μM α-MSH. 100% specific binding was defined as the difference in radioactivity (cpm) bound to cell membranes in the absence and presence of 1 μM α-MSH. The cpm obtained in presence of test compounds were normalized with respect to 100% specific binding to determine the percent inhibition of ^125I-NDP-α-MSH binding.

Male Sprague-Dawley rats [3] = test: Penile erection behavior dose response animal studies; type: in vivo, rat
Description: For behavioral experiments test solutions of rhenium-complexed metallopeptides were freshly prepared in DMSO and diluted in saline. Male Sprague-Dawley rats (Taconic) weighing 200-250 g were kept on a 12 hour on/off light cycle with food and water ad libitum. All behavioral studies were performed between 10 a.m. and 5 p.m. Groups of 3-10 rats were treated with the rhenium-complexed metallopeptides at a variety of doses via intravenous (IV) injection. In a second experimental paradigm, rats were treated a selected compound intranasally (IN) using a micropipet to deliver 25 μl of solution into one nostril. Immediately after treatment, rats were placed into individual Lucite cages (27 cm long, 16 cm wide and 25 cm high) for behavioral observation.

Male Sprague-Dawley rats [4] = test: Combination penile erection behavior studies: antagonist IV before IN agonist; type: in vivo, rat;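 for Mean Penile Erections/Rat: Erections counted over 30 min observation after IN dosing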;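 for Percent with Penile Erections: Erections counted over 30 min observation after IN dosing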
Description: Conditions were as in Example 3 except as noted. Groups of 5-6 rats received an IV dose of either placebo or antagonist 5 minutes prior to an IN dose of either placebo or agonist. Two antagonists were used: ReO[Heptanoyl-Ser(Bzl)-D-Nal 2′-Arg-Trp-Cys-NH2] and SHU9119 (Hruby V J, Lu D, Sharma S D, et al. J Med Chem 38:3454-3461 (1995)), Ac-Nle-cyclo(-Asp-His-D-Nal 2′-Arg-Trp-Lys)-NH2. The agonist used was Ac-Nle-cyclo(-Asp-His-D-Phe-Arg-Trp-Lys)-OH. Immediately after IN treatment, rats were placed into individual Lucite cages for observation. […] In combination studies, the antagonist was dosed IV 5 minutes prior to a 50 μg/kg IN dose of Ac-Nle-cyclo(-Asp-His-D-Phe-Arg-Trp-Lys)-OH.
These studies were conducted as described above in Example 4 with metallopeptide antagonists administered IV five minutes before IN administration of 50 μg/kg Ac-Nle-cyclo(-Asp-His-D-Phe-Arg-Trp-Lys)-OH. […] The potency of these antagonists also correlated with their relative binding affinities in the in vitro binding assays.

[5] = Table 6, 1 μM, mean of triplicate
[6] = Table 1, 1 μM Re-complexed peptide
[7] = IV 50 μg/kg, 30 min observation
[8] = agonist alone 50 μg/kg IN, arm of the ReO[Heptanoyl-Ser(Bzl)-D-Nal 2′-Arg-Trp-Cys-NH2] study
[9] = agonist alone 50 μg/kg IN, arm of the SHU9119 study
[10] = combination: antagonist 5 μg/kg IV 5 min prior to 50 μg/kg IN Ac-Nle-cyclo(-Asp-His-D-Phe-Arg-Trp-Lys)-OH

T4 sequence (P32245 whole entry): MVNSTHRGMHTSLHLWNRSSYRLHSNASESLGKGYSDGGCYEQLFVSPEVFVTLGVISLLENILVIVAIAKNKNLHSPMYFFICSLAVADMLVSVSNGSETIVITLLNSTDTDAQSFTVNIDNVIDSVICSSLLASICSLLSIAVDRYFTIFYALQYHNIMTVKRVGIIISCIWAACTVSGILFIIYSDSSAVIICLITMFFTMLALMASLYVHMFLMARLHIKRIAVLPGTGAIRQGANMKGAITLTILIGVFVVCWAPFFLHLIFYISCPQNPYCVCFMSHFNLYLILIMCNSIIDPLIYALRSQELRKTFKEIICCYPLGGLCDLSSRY
T3 sequence (P41968 whole entry): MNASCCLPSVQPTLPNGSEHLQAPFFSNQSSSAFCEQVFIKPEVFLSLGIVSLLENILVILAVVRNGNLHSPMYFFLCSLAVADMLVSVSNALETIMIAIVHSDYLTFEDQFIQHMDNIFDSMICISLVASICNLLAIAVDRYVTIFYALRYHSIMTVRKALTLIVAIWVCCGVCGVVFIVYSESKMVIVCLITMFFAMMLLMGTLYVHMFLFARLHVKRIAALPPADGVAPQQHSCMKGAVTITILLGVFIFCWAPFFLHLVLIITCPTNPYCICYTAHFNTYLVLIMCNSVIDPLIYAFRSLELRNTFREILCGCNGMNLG
T1 sequence (P33032 whole entry): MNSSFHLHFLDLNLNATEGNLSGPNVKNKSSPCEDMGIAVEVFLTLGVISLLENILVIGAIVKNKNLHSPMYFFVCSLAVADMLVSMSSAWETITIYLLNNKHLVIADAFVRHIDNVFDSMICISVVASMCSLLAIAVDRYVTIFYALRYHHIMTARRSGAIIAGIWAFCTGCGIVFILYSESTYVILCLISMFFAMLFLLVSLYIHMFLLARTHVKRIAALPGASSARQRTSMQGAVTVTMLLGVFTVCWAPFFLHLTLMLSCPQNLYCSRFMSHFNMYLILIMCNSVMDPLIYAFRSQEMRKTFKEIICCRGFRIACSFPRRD
T2 sequence (Q01727 whole entry): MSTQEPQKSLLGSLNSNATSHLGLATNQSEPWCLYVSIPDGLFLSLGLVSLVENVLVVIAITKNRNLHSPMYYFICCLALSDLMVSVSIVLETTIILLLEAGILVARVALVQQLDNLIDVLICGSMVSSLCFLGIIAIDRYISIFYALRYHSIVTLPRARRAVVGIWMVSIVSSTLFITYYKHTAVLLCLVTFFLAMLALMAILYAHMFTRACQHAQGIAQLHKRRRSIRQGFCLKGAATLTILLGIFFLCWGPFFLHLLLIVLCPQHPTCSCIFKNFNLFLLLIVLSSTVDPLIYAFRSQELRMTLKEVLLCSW
T5 sequence (P41968 whole entry): as the sequence (P41968 whole entry) above

Substance	% Inhibition of Binding hMC5-R (hMC5-R; [5]) [%]	% Inhibition of Binding MC1-R (MC1-R; [5]) [%]	% Inhibition of Binding hMC2-R (hMC2-R) [%]	% Inhibition of Binding hMC4-R (MC4-R [1]; [5]) [%]	Functional activity at MC4-R (cAMP accumulation; inhibition of α-MSH-induced cAMP) (MC4-R [2])	also measured
NH2(CH2)6CO-Ser(Bzl)-D-Nal 2′-Arg-D-Trp-Cys-NH2	83	6	58	92	MC4-R antagonists	
Ac-Nle-Ala-His-D-Phe-Arg-Trp-Cys-NH2 ({Ac-Nle-Ala-H2N}-[dF]RWC-NH2; also: ReO complex)					MC4-R agonists	% Inhibition of Binding hMC5-R (hMC5-R; [6]): 93%; % Inhibition of Binding MC1-R (MC1-R; [6]): 91%; % Inhibition of Binding hMC3-R (hMC3-R): 70%; % with Penile Erections (Male Sprague-Dawley rats [3]; IN 10 μg/kg, 10 rats): 70%; Mean Penile Erections/Rat (Male Sprague-Dawley rats [3]; IN 10 μg/kg, 10 rats): 0.9 ± 0.2; Mean Penile Erections/Rat (Male Sprague-Dawley rats [3]; IV 10 μg/kg, 30 min observation): 0.25; Mean Penile Erections/Rat (Male Sprague-Dawley rats [3]; IV 30 μg/kg, 30 min observation): 0.75; Mean Penile Erections/Rat (Male Sprague-Dawley rats [3]; [7]): 1.0; % Inhibition of Binding hMC4-R (MC4-R [1]; [6]): 89%
Ac-Nle-cyclo(-Asp-His-D-Phe-Arg-Trp-Lys)-OH						Mean Penile Erections/Rat (Male Sprague-Dawley rats [4]; [8]): 1.2 ± 0.3; Percent with Penile Erections (Male Sprague-Dawley rats [4]; [8]): 83%; Mean Penile Erections/Rat (Male Sprague-Dawley rats [4]; [9]): 1.6 ± 0.2; Percent with Penile Erections (Male Sprague-Dawley rats [4]; [9]): 100%
Ac-Nle-cyclo(-Asp-His-D-Nal 2′-Arg-Trp-Lys)-NH2						Mean Penile Erections/Rat (Male Sprague-Dawley rats [4]; antagonist alone, 5 μg/kg IV): 0; Percent with Penile Erections (Male Sprague-Dawley rats [4]; antagonist alone, 5 μg/kg IV): 0%; Mean Penile Erections/Rat (Male Sprague-Dawley rats [4]; [10]): 0; Percent with Penile Erections (Male Sprague-Dawley rats [4]; [10]): 0%; Effect on erectile behavior induced by Ac-Nle-cyclo(-Asp-His-D-Phe-Arg-Trp-Lys)-OH, in words (Male Sprague-Dawley rats [4]; rats, antagonist IV before IN agonist): blocked
Ac-Nle-Ala-His-D-Phe(3′-Cl)-Arg-Trp-Cys-Trp-NH2					MC4-R agonists	% Inhibition of Binding MC1-R (MC1-R; [6]): 101%; Mean Penile Erections/Rat (Male Sprague-Dawley rats [3]; [7]): 0.5; % Inhibition of Binding hMC4-R (MC4-R [1]; [6]): 100%
3′-Br Phenyl acetyl-Arg-Arg-D-Phe(4′-Cl)-Cys-Trp-NH2	89	91	48	92	MC4-R agonists	% Inhibition of Binding MC1-R (MC1-R; [6]): 97%; Mean Penile Erections/Rat (Male Sprague-Dawley rats [3]; [7]): 0.5; % Inhibition of Binding hMC4-R (MC4-R [1]; [6]): 100%
allo-Thr-D-Phe-Arg-Cys-Trp-NH2 ([aThr][dF]RCW-NH2; also: metal complex)	31	66	5	0		
Tic-D-Phe-Arg-Trp-Cys-NH2 ([Tic][dF]RWC-NH2; also: metal complex)	69	14	25	64		
Nal 2′-D-Phe-Arg-Cys-Trp-NH2 ([2Nal][dF]RCW-NH2; also: metal complex)	63	39	13	21		
Allo-Thr-D-Phe-Arg-Trp-Cys-NH2	2	28	0	22		
Idc-D-Phe-Arg-Trp-Cys-NH2	0	12	0	11		
